Read-outs that look alike come from different tables or passages of the source.
What was measured:
[1] = biological target: T1, MAO-B (Homo sapiens, UniProt P27338); test: inhibitory action on MAO-B (statement, no method given); assay type: biochemical
T1 sequence (P27338 1-520): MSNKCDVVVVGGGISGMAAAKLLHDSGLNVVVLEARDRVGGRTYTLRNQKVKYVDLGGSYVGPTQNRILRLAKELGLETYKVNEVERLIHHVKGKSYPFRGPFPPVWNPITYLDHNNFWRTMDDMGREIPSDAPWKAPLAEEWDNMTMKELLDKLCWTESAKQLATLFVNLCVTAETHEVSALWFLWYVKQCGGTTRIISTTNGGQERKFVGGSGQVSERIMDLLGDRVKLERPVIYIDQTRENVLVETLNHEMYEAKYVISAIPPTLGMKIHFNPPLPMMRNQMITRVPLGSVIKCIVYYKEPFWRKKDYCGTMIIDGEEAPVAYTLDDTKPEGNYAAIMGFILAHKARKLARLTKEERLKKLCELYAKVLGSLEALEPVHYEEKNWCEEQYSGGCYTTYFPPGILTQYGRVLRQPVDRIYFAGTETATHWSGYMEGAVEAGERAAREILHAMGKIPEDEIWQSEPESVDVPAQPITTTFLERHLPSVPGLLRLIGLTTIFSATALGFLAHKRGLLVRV

[2] = human plasma pharmacokinetics of orally administered tyramine; assay type: in vivo
Text: Such pharmaceutical formulations are manufactured in such a way that the product passes unchanged through the stomach of the patient, and dissolves and releases the active ingredient when it leaves the stomach and enters the middle and lower portions of the small intestine. Such formulations can be in tablet or pellet form, where the active ingredient is in the inner part of the tablet or pellet and is enclosed in a film or envelope, the “enteric coating,” which is insoluble in acid environments, such as the stomach, but is soluble in near-neutral environments such as the small intestine.

inhibitory actions on MAO-B [1] | time after dosing at which non-detectable levels observed ([2]; human plasma, tyramine with food in a capsule, oral dose of 200 mg) [h] | Tmax ([2]; human plasma, tyramine with food in a capsule, oral dose of 200 mg, read-out: Tmax) [h] | Tmax ([2]; human, plasma, oral, 200 mg, dietary tyramine, absorbed and metabolized in stomach, upper small intestine and liver, read-out: average Tmax) [h] | SMILES
devoid of inhibitory actions on MAO-B | – | – | – | O=S1(=O)c2ccc(F)cc2Oc2cc(OCC(F)(F)F)ccc21 [CX157, 3-fluoro-7-(2,2,2-trifluoroethoxy)phenoxathiin 10,10-dioxide]
– | 3 to 4 | ≤ 1.25 | 1.25 | NCCc1ccc(O)cc1 [tyramine]
